The experiment deals with E. coli 0128:B12 LPS. The experiment in a line: Limulus test of ET spiked plasma, Example 4. It counts as biochemical. The following applies: 0.009 w/v % of Px B alone; ET 2 ng/ml, 80° C. 5 minutes (FIG. 4). Here is the method:
To 0.1 ml of the LAL solution was added 0.1 ml of the aforesaid diluted plasma, and stirred, after which a time required for reducing the transmittance of the resulting mixture by 5% (hereinafter abbreviated as "Tg") was measured while maintaining the temperature at 37° C. The ET concentration in the diluted plasma was determined on the basis of the thus obtained Tg value by use of a calibration curve showing the relationship between ET concentration and Tg which had been previously obtained by carrying out the same measurement as described above except for using ET solutions having various known concentrations in place of the samples.
To 1.3 ml of normal human heparinized plasma was added 13 μl of ET solution having a predetermined concentration, and 100 μl of the resulting ET spiked plasma was diluted 10 times with 900 μl of distilled water for injection, each of aqueous surfactant solutions having predetermined concentrations, each of aqueous Px B solutions having predetermined concentrations, or each of aqueous Px B solutions having predetermined concentrations and containing 0.1 w/v % or 0.2 w/v % of the surfactant (polyoxyethylene glycol p-t-octylphenyl ether), respectively. […] The ET concentration in the diluted plasma thus obtained was measured in the same manner as in Example 1.

For the substance polymyxin B [Px B], the “ET activity in plasma” value is listed as “completely inhibited”.
